Measurements: patent publication US4621073A, “Cyclic peptides having somatostatin activity” (Hoechst Aktiengesellschaft, priority 1983, dated 1986)
Non-standard residues stand in square brackets, D forms with d. Residues, ends and D or L forms follow the SMILES beside them.

Columns and labels:
blood glucose = experiment: potentiation of the hypoglycemic effect of insulin in adrenalectomized rats; format: in vivo, rat
gastric acid = experiment: reduction of gastric acid after intravenous administration to the rat; format: in vivo; settings: i.v. dose of 30 μg/kg
Experimental: The peptides according to the invention have the inhibitory properties of somatostatin, but their duration of action is considerably longer at lower doses. For example, after intravenous administration to the rat, these peptides reduce gastric acid with an ED50 of about 5 μg/kg. The reduction in gastric acid is maintained for 2 hours. […] A reduction in gastric acid is only brought about by infusing somatostatin. […] The new compounds can also be administered orally and intranasally. However, in these instances considerably higher doses are necessary because of the poorer absorption.

Compound: cyclo-(Aoc-Phe-D-Trp-Lys-Val-Phe)
- potentiation of the hypoglycemic effect of insulin, effect relative to cyclo-(Pro-Phe-D-Trp-Lys-Thr-Phe) (blood glucose): at least twice
- reduction of blood glucose (blood glucose; dose of 0.07 μg/kg^-1.min^-1): up to 24%

Compound: C[C@H](N)C(=O)NCC(=O)N[C@H]1CSSC[C@@H](C(=O)O)NC(=O)[C@H](CO)NC(=O)[C@H]([C@@H](C)O)NC(=O)[C@H](Cc2ccccc2)NC(=O)[C@H]([C@@H](C)O)NC(=O)[C@H](CCCCN)NC(=O)[C@H](Cc2c[nH]c3ccccc23)NC(=O)[C@H](Cc2ccccc2)NC(=O)[C@H](Cc2ccccc2)NC(=O)[C@H](CC(N)=O)NC(=O)[C@H](CCCCN)NC1=O [somatostatin, Somatostatin]
- effect on gastric acid (gastric acid): no effect whatever

Compound: C[C@@H](O)[C@@H]1NC(=O)[C@H](CCCCN)NC(=O)[C@@H](Cc2c[nH]c3ccccc23)NC(=O)[C@H](Cc2ccccc2)NC(=O)[C@@H]2CCCN2C(=O)[C@H](Cc2ccccc2)NC1=O [cyclo-(Pro-Phe-D-Trp-Lys-Thr-Phe)] (cyclo(PF[dW]KTF))
- effect on blood glucose (blood glucose; dose of as much as 0.318 μg/kg^-1. min^-1): completely ineffective
